Reference: patent US20260285873A1, “CYCLIC COMPOUNDS USED AS MULTI-TARGET KINASE INHIBITORS AND PREPARATION METHOD THEREFOR” (Shanghai Institute of Organic Chemistry, Chinese Academy of …, priority 2022, published 2026)
Like-named read-outs stand apart in the source and are kept apart here.

Assays:
[1] = target: LRRK2 wt (Homo sapiens, UniProt Q5S007); experiment: Kinase activity inhibition assay (ADP-Glo), LRRK2 wt; type: biochemical; conditions: read-out: LRRK2 wt inhibition rate at 100 nM; compound at 100 nM
Method: The kinase activity inhibition assay was performed by ICE Bioscience (Beijing) using ADP-Glo and HTRF methods.

[2] = Oral pharmacokinetic study in rats; type: in vivo; conditions: rat, brain, male SD rats, oral gavage, read-out: B/P (1 h)
Method: Drug preparation: 1% MC was added to the compound, ground, and shaken uniformly. Samples were collected at 5 min, 15 min, 30 min, 1 h, 2 h, 4 h, and 8 h post-dose, followed by analysis using liquid chromatography-tandem mass spectrometry (LC-MS/MS).

LRRK2 wt, sequence (Q5S007 whole entry): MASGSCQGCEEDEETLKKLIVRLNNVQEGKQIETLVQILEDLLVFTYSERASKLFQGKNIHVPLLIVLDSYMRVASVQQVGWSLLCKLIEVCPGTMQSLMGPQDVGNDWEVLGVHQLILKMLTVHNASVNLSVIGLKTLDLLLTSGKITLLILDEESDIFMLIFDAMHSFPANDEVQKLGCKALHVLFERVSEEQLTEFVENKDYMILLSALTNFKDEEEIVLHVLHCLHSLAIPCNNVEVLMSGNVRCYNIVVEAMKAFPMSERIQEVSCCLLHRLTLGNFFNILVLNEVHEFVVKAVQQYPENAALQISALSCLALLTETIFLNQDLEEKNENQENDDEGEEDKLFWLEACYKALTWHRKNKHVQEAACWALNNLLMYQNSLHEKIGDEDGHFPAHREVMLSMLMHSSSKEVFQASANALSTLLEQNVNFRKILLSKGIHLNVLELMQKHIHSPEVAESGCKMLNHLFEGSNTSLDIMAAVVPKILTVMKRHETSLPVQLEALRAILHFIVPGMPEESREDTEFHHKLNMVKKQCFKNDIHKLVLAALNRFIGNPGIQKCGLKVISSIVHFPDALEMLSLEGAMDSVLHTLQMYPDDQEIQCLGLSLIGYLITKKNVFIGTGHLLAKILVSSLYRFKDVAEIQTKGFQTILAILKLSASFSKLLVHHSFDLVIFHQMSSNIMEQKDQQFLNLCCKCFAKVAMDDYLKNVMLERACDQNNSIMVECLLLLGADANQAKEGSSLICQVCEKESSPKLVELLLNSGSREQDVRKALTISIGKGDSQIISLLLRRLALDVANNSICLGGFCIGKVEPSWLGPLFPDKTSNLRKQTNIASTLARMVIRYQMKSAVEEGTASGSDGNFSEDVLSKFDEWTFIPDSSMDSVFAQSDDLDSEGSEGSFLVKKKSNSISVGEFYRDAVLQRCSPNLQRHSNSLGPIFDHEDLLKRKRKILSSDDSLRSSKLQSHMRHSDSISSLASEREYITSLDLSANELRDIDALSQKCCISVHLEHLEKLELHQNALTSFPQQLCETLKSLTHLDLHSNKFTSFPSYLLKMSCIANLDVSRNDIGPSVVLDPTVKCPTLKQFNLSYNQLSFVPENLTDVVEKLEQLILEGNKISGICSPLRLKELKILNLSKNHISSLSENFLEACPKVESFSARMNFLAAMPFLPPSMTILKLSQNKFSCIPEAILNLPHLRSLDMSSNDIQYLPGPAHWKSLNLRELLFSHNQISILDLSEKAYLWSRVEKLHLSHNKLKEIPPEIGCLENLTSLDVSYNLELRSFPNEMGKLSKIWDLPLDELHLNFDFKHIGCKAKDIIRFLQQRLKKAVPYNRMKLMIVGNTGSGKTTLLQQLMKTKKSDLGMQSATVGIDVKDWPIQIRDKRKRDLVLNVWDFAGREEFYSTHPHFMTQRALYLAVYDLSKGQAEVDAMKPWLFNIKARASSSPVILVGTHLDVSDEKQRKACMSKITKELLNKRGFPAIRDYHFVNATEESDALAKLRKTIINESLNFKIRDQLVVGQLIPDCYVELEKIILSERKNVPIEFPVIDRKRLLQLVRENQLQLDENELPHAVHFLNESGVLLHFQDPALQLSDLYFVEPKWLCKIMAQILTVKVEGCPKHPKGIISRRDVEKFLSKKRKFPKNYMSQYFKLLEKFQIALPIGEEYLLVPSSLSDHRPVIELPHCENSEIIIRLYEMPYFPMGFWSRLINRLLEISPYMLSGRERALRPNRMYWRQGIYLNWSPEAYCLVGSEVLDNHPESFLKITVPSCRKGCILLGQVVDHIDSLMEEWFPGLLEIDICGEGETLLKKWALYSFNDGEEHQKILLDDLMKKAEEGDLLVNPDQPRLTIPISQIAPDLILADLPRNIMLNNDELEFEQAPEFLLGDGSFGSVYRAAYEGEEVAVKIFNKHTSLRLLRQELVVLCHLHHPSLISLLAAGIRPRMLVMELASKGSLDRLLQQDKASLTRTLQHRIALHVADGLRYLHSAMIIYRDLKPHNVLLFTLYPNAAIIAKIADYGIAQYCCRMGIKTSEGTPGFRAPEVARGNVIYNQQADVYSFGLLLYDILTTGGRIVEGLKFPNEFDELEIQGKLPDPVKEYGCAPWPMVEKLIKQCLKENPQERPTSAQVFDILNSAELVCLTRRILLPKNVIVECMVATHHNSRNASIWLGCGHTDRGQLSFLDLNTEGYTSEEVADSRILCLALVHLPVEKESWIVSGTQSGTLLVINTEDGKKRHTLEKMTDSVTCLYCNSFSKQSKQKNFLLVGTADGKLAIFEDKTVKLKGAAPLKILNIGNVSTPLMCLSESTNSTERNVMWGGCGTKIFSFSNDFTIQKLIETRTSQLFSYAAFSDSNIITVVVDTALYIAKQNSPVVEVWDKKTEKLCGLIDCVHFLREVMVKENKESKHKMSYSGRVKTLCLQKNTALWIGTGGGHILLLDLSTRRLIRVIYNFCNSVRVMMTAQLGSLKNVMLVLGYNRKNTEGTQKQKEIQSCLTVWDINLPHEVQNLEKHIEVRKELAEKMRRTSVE

Compound: Cc1nn2cc1Nc1ncc(C(F)(F)F)c(n1)NC1CCCC(C1)NC(=O)C2(C)C (stereo not drawn) [Example T-42, (5^3R,E)-1^3,8,8-Trimethyl-3^5-(trifluoromethyl)-1^1H-2,4,6-triaza-3(2,4)-pyrimidina-1(4,1)-pyrazola-5(1,3)-cyclohexacyclooctan-7-one]
- inhibition at 0.1 µM [1]: 42.1%

Compound: Cc1nn2cc1Nc1ncc3c(Cl)cc(n3n1)CCCNC(=O)C2(C)C [Example T-25, (1^1Z,3^4E)-1^5-Chloro-3^3,4,4-trimethyl-3^1H-2,6-diaza-1(2,7)-pyrrolo[2,1-f][1,2,4]triazine-3(4,1)-pyrazolacyclononan-5-one]
- Kp at 1 h ([2]; 5 mg/kg, 5 mpk): 0.58

Compound: Cc1nn2cc1Nc1ncc(C(F)(F)F)c(n1)NCCCNC(=O)C2(C)C [Example T-1, (E)-3^3,4,4-Trimethyl-15-(trifluoromethyl)-3^1H-2,6,10-triaza-1(2,4)-pyrimidina-3(4,1)-pyrazolacyclodecan-5-one]
- Kp at 1 h ([2]; 3 mg/kg, 3 mpk): 0.13
